In US20080254152A1, “Methods for Reducing the Effects of Stress on Skin Condition” (priority 2003, published 2008):

Key:
[1] = system: procollagen-1 expression in human neonatal dermal fibroblast cells; assay: Procollagen I C-peptide EIA in neonatal-derived human dermal fibroblasts after chronic dexamethasone and PMA; assay type: cell-based; conditions: chronic dexamethasone then 1 μM PMA; T6; neonatal fibroblasts; FIG. 8
Procedure: In this study, to understand better the effect of chronic stress on dermal matrix remodelling in the skin, we have therefore measured changes in markers of dermal matrix degradation (MMP-1) and dermal matrix synthesis (Procollagen I) in chronically glucocorticoid-treated primary human dermal fibroblasts, following acute stress with PMA. The experimental approach is similar to that described in example 1 except that the cells tested are dermal fibroblasts and cells are assayed for expression of procollagen-1, MMP-1 and MMP-9 expression.
Primary human dermal fibroblast cells were cultured and passaged in DMEM (Gibco) supplemented with 10% FBS (foetal bovine serum). Cells were routinely plated out in 6-well tissue culture dishes, at a seeding density of ˜5000 cells/cm^2 in 2 ml complete medium/well for 24 hours, and incubated at 37° C. in 5% CO2. Media was removed and cells grown in DMEM & 1% FBS, 24 hours prior to treatments.
Pre-treatment and test solutions were prepared in DMEM containing low serum (1% FBS). […] Following this, the cells were oxidatively stressed for 24 hours with 1 μM PMA (Sigma P8139).
Collagen I is synthesised as a precursor molecule, Procollagen I. The amount of free propeptide therefore, reflects stoichiometrically, the amount of collagen I synthesised. The Procollagen Type I C-peptide Enzyme Immunoassay (EIA) kit allows for the quantitative determination of Procollagen Type I C-peptide (PIP).
Eight PIP standards were prepared in sample diluent at concentrations ranging from 0 to 640 ng/ml. 100 μl of antibody-Peroxidase conjugate solution and 20 μl of cell lysate (1 μg protein) or standard was added to duplicate wells. The plate was sealed and incubated at 37° C. for 3 hours before being washed four times with 400 μl of PBS. Each well then received 100 μl of substrate solution and the plate incubated at room temperature, on the benchtop, for 15 minutes. After this period, 100 μl stop solution was added to each well and absorbance measured at 450 nm with a plate reader.
A standard curve was plotted of mean absorbance versus PIP concentration and the line of best fit calculated by regression analysis. The unknown concentration of PIP in all the samples was estimated from this.
The same methods were used as described in Example 2, except that various test agents were added to the cells during the pre-treatment period.

[2] = system: IL-6 expression in neonatal-derived human dermal fibroblasts; assay: IL-6 in neonatal-derived human dermal fibroblasts after chronic dexamethasone and PMA; assay type: cell-based; conditions: GC-treated neonatal fibroblasts after PMA; T6 and T24; data not shown
Procedure: The IL-6 protein concentration of each tissue culture supernatant was assayed using the QuantiGlo Q6000 Human IL-6 assay (R&D Systems) according to the manufacturer's instructions.
Six IL-6 standards were prepared in calibrator diluent at concentrations ranging from 0 to 3000 pg/ml. 50 μl of assay diluent and 150 μl of tissue culture supernatant or standard was added to duplicate wells. The plate was incubated at room temperature for 2 hours on a horizontal orbital plate shaker before being washed four times with wash buffer. 200 μl of IL-6 conjugate was added to each well and the plate incubated at room temperature for 3 hours on a horizontal orbital plate shaker (˜500 rpm). The plate was washed as before. […] The relative light unit (RLU) of each well was determined using a luminometer set with 1 minute lag time, 1 second/well read time, summation mode and automatic gain on.
A standard curve was plotted of mean RLU versus IL-6 concentration and the line of best fit calculated by regression analysis. […]
In this study, to understand better the effect of chronic stress on dermal matrix remodelling in the skin, we have therefore measured changes in markers of dermal matrix degradation (MMP-1) and dermal matrix synthesis (Procollagen I) in chronically glucocorticoid-treated primary human dermal fibroblasts, following acute stress with PMA. […]

**Q.** C[C@@H]1C[C@H]2[C@@H]3CCC4=CC(=O)C=C[C@]4(C)[C@@]3(F)[C@@H](O)C[C@]2(C)[C@@]1(O)C(=O)CO [Dexamethasone] was tested. Which “Inhibition of Procollagen-1 synthesis vs control, untreated cells” value [1] did it give?
**A.** The value was roughly 50%.

**Q.** And the “Reduction in Interleukin-6 synthesis vs vehicle treated cells” value [2]?
**A.** Its value is roughly 80%.
